The values that follow come from ChEMBL document CHEMBL4152373 (Bioorg Med Chem, 2018).

The source made the active and inactive calls.

The subject of series [1] is Mus musculus. Briefly: Antidiabetic activity in C57Bl/6J mouse assessed as inhibition of blood glucose AUC (0 to 120 mins) at 50 mg/kg, po treated prior to glucose challenge by OGTT relative to control. It is filed as functional.
The target of series [2] is Glucagon-like peptide 1 receptor (Homo sapiens) (UniProt P43220). To be noted: 10 uM.
Description: Antagonist activity at GLP1R (unknown origin) at 10 uM by cAMP accumulation based assay relative to control
Series [3] concerns the target Hydroxycarboxylic acid receptor 2 (Homo sapiens) (UniProt Q8TDS4). Briefly: Antagonist activity at GPR109a (unknown origin) at 10 uM by aequorin based assay relative to control. It is filed as functional.
Series [4] relates to Mus musculus. Put plainly: Dose normalized unbound AUC in C57Bl/6J mouse at 50 mg/kg, po administered via gavage as single dose by LC-MS/MS analysis. It is filed as ADME, organism-based. To be noted: in vivo.
Series [5] deals with Mus musculus. Briefly: Antidiabetic activity in FFA2R knock-out C57Bl/6J mouse assessed as inhibition of blood glucose AUC (0 to 120 mins) at […], po treated prior to glucose challenge by OGTT. The class given is functional, organism-based.
Series [6] can be described thus: Octanol-PBS buffer partition coefficient, log D of the compound at pH 7.4 by HPLC method.
The nature of series [7]: Fraction unbound in rat plasma at 5 uM after 4 hrs by equilibrium dialysis method. (Equilibrium dialysis compares concentrations on both sides of a semipermeable membrane.)
A short description of series [8]: Half life in Sprague-Dawley rat at 1 mg/kg, iv administered as single dose by LC-MS/MS analysis. It is filed as ADME, organism-based. To be noted: in vivo.
Series [9] addresses T1, Free fatty acid receptor 3 (Homo sapiens) (UniProt O14843).
T1 sequence (whole entry): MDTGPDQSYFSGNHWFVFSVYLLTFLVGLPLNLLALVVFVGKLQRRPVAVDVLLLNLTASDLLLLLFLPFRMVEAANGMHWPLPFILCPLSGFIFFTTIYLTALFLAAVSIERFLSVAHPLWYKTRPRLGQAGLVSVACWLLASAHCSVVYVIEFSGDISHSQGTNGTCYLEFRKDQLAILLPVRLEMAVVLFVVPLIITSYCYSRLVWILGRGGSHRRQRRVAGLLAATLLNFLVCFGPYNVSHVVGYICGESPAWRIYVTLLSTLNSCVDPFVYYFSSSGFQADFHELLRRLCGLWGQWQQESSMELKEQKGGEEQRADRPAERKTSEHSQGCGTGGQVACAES
To be noted: 10 uM.

The target of series [10] is T2, Glucose-dependent insulinotropic receptor (Homo sapiens) (UniProt Q8TDV5).
T2 sequence (whole entry): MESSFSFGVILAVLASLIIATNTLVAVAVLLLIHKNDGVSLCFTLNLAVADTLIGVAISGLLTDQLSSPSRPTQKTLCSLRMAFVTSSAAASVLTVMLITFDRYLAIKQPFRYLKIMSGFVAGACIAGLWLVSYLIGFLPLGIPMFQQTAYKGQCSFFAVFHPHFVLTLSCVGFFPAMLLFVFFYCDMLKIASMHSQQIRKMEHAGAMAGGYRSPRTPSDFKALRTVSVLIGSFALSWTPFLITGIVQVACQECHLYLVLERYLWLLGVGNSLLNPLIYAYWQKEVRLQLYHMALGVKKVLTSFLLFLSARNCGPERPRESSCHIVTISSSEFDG
Put plainly: Antagonist activity at GPR119 (unknown origin) at 10 uM by cAMP accumulation based assay relative to control. The class given is functional. A general note: Cyclic AMP is a second messenger, typically raised through Gs and lowered through Gi signalling.

Series [11] has as its target T3, Gastric inhibitory polypeptide receptor (Homo sapiens) (UniProt P48546).
T3 sequence (whole entry): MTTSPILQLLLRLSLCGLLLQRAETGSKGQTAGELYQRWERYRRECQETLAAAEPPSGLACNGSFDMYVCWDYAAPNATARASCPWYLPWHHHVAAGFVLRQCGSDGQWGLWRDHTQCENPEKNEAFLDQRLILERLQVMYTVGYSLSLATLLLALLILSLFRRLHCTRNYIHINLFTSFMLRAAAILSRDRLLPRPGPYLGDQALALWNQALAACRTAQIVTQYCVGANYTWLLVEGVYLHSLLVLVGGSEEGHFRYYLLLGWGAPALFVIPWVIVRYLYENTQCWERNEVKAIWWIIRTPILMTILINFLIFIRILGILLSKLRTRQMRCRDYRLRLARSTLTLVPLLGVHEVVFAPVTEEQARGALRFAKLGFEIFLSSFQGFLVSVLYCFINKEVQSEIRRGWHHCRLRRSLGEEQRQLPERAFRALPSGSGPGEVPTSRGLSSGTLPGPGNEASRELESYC
Conditions: 10 uM.
Description: Antagonist activity at GIPR (unknown origin) at 10 uM by cAMP accumulation based assay relative to control

Series [12] addresses Free fatty acid receptor 1 (Homo sapiens) (UniProt O14842). Briefly: Antagonist activity at FFA1R (unknown origin) at 10 uM by aequorin based assay relative to control. It is filed as functional.
Series [13] deals with Rattus norvegicus. Put plainly: Dose normalized unbound AUC in Sprague-Dawley rat at 3 mg/kg, po administered via gavage as single dose by LC-MS/MS analysis. The class given is ADME, organism-based. Conditions: in vivo.
The target of series [14] is T4, Glucagon-like peptide 2 receptor (Homo sapiens) (UniProt O95838).
T4 sequence (whole entry): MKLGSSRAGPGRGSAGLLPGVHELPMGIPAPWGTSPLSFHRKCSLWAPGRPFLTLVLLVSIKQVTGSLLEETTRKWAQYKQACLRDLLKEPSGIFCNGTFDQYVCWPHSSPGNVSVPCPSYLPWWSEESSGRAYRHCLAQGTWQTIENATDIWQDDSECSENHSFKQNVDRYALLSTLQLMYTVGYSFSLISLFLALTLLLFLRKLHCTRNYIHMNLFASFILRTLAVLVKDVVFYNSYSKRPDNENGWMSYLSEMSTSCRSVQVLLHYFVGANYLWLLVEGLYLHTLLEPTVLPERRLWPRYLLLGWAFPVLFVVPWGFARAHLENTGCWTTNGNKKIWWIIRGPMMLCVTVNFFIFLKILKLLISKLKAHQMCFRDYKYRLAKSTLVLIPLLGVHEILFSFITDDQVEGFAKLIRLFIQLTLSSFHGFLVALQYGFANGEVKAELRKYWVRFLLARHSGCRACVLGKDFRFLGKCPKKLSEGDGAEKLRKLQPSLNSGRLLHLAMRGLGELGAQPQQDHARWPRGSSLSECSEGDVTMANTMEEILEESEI
To be noted: 10 uM.
Description: Antagonist activity at GLP2R (unknown origin) at 10 uM by cAMP accumulation based assay relative to control

The subject of series [15] is Rattus norvegicus. Put plainly: Unbound clearance in Sprague-Dawley rat at 1 mg/kg, iv administered as single dose by LC-MS/MS analysis. It is filed as ADME, organism-based. Conditions: in vivo.
Series [16] concerns the target T2, Glucose-dependent insulinotropic receptor (Homo sapiens). Put plainly: Agonist activity at GPR119 (unknown origin) at 10 uM by cAMP accumulation based assay relative to control. The class given is functional.
Series [17] is described as follows: Oral bioavailability in Sprague-Dawley rat at 3 mg/kg administered via gavage as single dose by LC-MS/MS analysis. The class given is ADME, organism-based. To be noted: in vivo.

For orientation: inhibition in vivo means the change of the read-out against control, counted positive when it falls. In general, inhibition refers to the drop in the measured response relative to a control, in per cent. As usually defined, the logD is the decadic logarithm of the distribution of all forms, ionised or not, between an organic phase and buffer at a given pH. Broadly, the fraction unbound is the share of the substance not bound to proteins or other matrix. The half-life is the time needed for the level to fall by half in the phase considered. What is called bioavailability is dose-corrected exposure relative to a reference, in per cent. High values mean much systemic uptake, low ones little systemic uptake.

Sequence of Glucagon-like peptide 1 receptor (Homo sapiens) (P43220 whole entry): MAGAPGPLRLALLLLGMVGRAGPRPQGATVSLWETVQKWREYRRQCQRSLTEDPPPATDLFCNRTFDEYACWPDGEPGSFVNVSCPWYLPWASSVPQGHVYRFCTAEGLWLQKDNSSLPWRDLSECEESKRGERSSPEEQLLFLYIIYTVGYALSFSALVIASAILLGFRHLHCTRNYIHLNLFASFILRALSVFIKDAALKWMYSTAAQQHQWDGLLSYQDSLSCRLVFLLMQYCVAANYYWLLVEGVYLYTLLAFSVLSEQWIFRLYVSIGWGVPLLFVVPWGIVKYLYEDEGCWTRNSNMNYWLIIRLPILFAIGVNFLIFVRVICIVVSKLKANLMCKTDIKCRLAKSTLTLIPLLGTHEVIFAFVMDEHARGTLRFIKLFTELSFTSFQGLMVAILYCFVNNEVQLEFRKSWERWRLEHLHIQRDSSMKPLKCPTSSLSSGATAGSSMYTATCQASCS
Sequence of Hydroxycarboxylic acid receptor 2 (Homo sapiens) (Q8TDS4 whole entry): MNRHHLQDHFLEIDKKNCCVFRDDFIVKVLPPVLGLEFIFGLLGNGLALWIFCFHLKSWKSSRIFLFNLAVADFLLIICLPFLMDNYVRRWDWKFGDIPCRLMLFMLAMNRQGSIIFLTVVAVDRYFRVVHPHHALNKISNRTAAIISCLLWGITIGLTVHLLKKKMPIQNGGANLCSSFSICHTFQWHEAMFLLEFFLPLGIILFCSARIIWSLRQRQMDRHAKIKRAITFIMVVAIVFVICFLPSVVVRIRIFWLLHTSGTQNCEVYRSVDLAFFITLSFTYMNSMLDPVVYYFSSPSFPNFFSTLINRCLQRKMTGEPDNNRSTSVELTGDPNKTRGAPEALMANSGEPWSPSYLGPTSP
Sequence of Free fatty acid receptor 1 (Homo sapiens) (O14842 whole entry): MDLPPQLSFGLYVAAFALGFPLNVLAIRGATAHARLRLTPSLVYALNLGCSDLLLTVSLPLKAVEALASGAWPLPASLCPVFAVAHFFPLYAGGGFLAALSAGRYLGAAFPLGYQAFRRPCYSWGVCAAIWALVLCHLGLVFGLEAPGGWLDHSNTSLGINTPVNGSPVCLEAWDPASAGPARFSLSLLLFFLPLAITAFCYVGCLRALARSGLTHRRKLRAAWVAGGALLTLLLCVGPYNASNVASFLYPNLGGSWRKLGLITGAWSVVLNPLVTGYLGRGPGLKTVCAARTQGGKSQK

In the case of `COc1ccc(-c2ccccc2-c2csc(N(C(=O)[C@@H](CC(=O)O)CC3CCCC3)C3CC3)n2)cn1`, the inhibition in vivo at 50 mg/kg with Mus musculus [1] was 33%. Also, the inhibition in series [2] is less than 10%; in series [3], less than 10%; in [9] it was less than 10%; in series [10], less than 10%; in series [11] it was less than 10%; in series [12], 13%. The inhibition in series [14] was less than 10%. The fAUC/dose with Mus musculus [4] was 2.1 µM·min; with Rattus norvegicus [13], 0.29 µM·min. Besides, in the series with Mus musculus [5], the inhibition result was “Active”. Besides, the logD in series [6] was 2.6. In [7], the fraction unbound at 4 h, 5 µM came to 0.0006. This molecule also registered a half-life in [8] of 4 h. In the series on Rattus norvegicus [15], this molecule returned a CL free of 2617 mL/min/kg. The molecule also returned an Activity in series [16] of less than 10%. The molecule further displayed a bioavailability in series [17] of 47%.
